Each block holds one compound with its values, some of them ahead of it.
Assays:
[1] = molecular target: Mast/stem cell growth factor receptor Kit (Homo sapiens) (UniProt P10721); assay: Inhibition of human recombinant KIT at 500 nM related to control ULK1
[2] = molecular target: Serine/threonine-protein kinase N2 (Homo sapiens) (UniProt Q16513); assay: Inhibition of human recombinant PKN2 at 500 nM in presence of ATP by radiometric assay relative to control
[3] = molecular target: Death-associated protein kinase 2 (Homo sapiens) (UniProt Q9UIK4); assay: Inhibition of human recombinant DAPK2 at 500 nM related to control ULK1
[4] = molecular target: Serine/threonine-protein kinase D2 (Homo sapiens) (UniProt Q9BZL6); assay: Inhibition of human recombinant PKD2 at 500 nM in presence of ATP by radiometric assay relative to control
[5] = molecular target: T1, cGMP-dependent protein kinase 1 (Homo sapiens) (UniProt Q13976); assay: Inhibition of human recombinant PKG1 at 500 nM related to control ULK1
T1 sequence (whole entry): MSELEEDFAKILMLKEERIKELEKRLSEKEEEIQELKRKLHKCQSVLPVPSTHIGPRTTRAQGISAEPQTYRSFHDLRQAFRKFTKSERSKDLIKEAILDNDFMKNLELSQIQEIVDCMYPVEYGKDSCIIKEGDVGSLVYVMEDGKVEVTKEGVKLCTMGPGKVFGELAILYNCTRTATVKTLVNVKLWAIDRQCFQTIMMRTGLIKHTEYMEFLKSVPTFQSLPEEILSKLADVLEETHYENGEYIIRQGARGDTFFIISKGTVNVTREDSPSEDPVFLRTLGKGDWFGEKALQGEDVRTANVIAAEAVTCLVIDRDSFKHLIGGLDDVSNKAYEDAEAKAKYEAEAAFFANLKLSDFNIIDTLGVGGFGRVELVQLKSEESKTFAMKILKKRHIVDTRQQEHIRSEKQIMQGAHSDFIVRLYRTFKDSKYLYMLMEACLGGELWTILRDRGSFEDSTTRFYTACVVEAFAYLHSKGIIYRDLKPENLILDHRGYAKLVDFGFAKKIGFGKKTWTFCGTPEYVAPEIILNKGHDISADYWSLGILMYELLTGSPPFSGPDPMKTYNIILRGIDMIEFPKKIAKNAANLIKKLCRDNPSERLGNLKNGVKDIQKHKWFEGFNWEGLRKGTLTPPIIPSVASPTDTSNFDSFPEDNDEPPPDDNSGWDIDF

[6] = molecular target: Transcription initiation factor TFIID subunit 1-like (Homo sapiens) (UniProt Q8IZX4); assay: Inhibition of human recombinant TAF1L at 500 nM in presence of ATP by radiometric assay relative to control
[7] = molecular target: Transient receptor potential cation channel subfamily M member 7 (Homo sapiens) (UniProt Q96QT4); assay: Inhibition of human recombinant ChaK1 at 500 nM related to control ULK1
[8] = molecular target: Mitogen-activated protein kinase 9 (Homo sapiens) (UniProt P45984); assay: Inhibition of human recombinant JNK2 at 40 nM related to control ULK1
[9] = molecular target: Serine/threonine-protein kinase SBK1 (Homo sapiens) (UniProt Q52WX2); assay: Inhibition of human recombinant SBK1 at 40 nM related to control ULK1
[10] = molecular target: T2, Serine/threonine-protein kinase DCLK2 (Homo sapiens) (UniProt Q8N568); assay: Inhibition of human recombinant DCAMKL2 at 40 nM in presence of ATP by radiometric assay relative to control
T2 sequence (whole entry): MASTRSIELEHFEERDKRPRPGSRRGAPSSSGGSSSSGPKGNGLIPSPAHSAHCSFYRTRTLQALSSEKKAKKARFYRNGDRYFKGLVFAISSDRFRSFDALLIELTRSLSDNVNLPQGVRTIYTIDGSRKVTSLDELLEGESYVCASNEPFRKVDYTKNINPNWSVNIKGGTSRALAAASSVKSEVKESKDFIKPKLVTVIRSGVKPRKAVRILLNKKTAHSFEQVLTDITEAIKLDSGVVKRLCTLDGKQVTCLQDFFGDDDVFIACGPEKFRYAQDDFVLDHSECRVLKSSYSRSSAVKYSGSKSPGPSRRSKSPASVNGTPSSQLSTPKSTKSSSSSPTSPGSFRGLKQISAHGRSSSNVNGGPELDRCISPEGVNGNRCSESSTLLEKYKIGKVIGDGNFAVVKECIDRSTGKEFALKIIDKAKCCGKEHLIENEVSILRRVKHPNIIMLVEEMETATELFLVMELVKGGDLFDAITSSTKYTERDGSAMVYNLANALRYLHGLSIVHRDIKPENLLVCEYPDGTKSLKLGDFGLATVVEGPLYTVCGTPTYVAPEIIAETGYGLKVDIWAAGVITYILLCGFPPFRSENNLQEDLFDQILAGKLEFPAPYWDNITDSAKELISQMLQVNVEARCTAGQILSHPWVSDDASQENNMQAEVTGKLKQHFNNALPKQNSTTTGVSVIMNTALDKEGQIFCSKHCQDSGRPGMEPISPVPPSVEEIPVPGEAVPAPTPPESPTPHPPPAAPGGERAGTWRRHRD

[11] = molecular target: Ribosomal protein S6 kinase alpha-2 (Homo sapiens) (UniProt Q15349); assay: Inhibition of human recombinant RSK3 at 40 nM in presence of ATP by radiometric assay relative to control
[12] = molecular target: Protein kinase C gamma type (Homo sapiens) (UniProt P05129); assay: Inhibition of human recombinant PKCg at 40 nM related to control ULK1
[13] = molecular target: Glycogen synthase kinase-3 beta (Homo sapiens) (UniProt P49841); assay: Inhibition of human recombinant GSK3B at 40 nM related to control ULK1
[14] = molecular target: Transcription initiation factor TFIID subunit 1-like (Homo sapiens) (UniProt Q8IZX4); assay: Inhibition of human recombinant TAF1L at 15 nM in presence of ATP by radiometric assay relative to control

Transcription initiation factor TFIID subunit 1-like (Homo sapiens), sequence (Q8IZX4 whole entry): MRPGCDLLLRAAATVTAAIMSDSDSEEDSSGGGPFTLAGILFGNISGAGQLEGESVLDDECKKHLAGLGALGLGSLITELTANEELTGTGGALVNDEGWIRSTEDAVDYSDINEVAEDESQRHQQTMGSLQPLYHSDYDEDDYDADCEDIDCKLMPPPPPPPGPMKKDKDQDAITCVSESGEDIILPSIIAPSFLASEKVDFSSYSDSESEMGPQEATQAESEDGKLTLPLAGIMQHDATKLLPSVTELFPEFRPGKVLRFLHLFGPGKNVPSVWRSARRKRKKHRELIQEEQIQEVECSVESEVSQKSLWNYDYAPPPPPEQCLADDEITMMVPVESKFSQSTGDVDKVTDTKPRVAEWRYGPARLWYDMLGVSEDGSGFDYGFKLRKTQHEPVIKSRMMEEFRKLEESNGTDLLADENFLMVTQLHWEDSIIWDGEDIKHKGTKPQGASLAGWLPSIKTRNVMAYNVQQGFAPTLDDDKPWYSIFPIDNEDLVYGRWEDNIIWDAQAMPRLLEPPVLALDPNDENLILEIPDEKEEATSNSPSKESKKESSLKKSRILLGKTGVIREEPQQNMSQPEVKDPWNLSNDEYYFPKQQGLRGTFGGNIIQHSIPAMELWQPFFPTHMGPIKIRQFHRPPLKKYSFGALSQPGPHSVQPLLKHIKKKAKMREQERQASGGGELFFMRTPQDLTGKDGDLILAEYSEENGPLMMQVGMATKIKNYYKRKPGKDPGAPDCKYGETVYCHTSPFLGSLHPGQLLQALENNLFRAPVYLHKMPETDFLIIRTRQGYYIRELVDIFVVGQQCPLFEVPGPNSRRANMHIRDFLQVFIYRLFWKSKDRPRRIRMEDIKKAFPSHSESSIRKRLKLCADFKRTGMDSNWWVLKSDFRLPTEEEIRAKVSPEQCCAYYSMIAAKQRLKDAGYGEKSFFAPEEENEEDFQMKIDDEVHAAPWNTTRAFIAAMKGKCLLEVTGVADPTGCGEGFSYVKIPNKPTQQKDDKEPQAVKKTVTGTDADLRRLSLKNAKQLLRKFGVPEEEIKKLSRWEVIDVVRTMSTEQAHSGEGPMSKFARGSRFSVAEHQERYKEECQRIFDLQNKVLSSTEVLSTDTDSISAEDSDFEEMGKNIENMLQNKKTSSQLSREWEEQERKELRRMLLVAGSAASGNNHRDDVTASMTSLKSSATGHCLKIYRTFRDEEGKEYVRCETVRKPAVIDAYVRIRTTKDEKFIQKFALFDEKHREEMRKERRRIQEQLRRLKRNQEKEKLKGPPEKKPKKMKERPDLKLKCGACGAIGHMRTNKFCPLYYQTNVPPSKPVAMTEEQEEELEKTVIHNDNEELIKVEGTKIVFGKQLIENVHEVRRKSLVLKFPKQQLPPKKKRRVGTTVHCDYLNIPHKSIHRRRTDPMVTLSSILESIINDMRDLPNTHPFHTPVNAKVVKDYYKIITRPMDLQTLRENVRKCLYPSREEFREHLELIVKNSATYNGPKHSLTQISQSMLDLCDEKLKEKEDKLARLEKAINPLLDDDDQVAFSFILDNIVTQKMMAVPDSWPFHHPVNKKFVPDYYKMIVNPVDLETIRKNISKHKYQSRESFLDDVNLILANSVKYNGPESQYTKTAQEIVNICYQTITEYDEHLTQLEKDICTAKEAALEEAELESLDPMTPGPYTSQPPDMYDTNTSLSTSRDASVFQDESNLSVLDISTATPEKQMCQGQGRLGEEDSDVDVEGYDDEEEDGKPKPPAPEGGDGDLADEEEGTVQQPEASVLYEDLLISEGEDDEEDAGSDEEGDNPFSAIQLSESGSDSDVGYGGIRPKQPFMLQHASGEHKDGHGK
Mitogen-activated protein kinase 9 (Homo sapiens), sequence (P45984 whole entry, looked up): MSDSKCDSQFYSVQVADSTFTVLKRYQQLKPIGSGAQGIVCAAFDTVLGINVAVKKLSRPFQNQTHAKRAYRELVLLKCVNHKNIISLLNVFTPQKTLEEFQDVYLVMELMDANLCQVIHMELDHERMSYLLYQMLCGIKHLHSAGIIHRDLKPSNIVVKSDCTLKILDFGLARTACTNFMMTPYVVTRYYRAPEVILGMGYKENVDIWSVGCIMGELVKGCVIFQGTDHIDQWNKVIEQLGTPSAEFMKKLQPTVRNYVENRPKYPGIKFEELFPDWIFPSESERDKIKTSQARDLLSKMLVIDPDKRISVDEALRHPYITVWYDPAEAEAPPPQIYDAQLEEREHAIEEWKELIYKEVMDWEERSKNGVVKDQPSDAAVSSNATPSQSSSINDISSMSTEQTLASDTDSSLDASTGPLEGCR
Transient receptor potential cation channel subfamily M member 7 (Homo sapiens), sequence (Q96QT4 whole entry): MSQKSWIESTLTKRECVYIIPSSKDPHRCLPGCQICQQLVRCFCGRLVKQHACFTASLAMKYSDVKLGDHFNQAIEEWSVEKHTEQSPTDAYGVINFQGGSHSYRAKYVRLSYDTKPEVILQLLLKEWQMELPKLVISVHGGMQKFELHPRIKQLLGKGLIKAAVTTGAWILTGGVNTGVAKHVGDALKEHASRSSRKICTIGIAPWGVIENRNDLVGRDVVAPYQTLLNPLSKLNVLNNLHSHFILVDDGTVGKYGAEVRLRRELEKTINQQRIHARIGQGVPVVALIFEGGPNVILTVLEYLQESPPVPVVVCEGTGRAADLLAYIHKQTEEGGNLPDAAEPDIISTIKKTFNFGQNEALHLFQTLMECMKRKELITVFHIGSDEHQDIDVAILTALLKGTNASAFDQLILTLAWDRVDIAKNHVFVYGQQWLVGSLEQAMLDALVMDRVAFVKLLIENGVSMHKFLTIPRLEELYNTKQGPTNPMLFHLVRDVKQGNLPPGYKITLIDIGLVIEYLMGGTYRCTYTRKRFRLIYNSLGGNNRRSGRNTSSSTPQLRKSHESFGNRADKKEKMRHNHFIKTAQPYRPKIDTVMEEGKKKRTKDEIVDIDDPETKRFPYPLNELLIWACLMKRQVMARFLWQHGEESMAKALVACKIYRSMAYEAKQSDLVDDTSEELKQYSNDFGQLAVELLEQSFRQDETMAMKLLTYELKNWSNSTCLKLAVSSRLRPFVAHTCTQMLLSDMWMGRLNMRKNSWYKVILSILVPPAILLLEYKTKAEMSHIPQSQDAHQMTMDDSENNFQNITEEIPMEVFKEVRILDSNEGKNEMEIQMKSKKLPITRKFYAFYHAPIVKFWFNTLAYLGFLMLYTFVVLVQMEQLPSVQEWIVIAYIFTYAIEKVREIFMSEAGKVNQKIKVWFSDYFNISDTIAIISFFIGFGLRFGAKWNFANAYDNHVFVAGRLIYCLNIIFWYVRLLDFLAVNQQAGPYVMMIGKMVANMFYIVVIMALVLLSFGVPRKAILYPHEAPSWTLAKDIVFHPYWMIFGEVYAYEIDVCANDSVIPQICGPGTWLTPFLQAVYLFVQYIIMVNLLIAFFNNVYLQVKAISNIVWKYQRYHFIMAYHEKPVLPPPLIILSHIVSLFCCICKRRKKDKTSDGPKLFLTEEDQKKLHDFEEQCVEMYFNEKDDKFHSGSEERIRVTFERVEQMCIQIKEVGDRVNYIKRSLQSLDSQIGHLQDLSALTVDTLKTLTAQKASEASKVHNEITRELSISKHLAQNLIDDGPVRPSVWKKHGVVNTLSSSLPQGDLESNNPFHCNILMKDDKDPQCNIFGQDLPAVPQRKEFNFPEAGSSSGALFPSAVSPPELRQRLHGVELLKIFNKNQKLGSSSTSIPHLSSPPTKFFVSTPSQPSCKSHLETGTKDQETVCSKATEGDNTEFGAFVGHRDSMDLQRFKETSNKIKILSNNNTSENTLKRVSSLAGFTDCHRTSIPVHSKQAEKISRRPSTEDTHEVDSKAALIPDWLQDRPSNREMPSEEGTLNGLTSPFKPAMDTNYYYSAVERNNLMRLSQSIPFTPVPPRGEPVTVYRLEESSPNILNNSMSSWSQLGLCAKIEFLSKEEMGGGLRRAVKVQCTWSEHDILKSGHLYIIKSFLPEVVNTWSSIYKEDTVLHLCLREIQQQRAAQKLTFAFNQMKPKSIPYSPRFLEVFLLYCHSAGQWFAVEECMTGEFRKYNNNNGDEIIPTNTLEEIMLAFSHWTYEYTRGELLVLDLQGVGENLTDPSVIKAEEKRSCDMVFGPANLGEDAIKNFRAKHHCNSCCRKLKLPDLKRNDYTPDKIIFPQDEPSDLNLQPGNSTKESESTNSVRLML
Glycogen synthase kinase-3 beta (Homo sapiens), sequence (P49841 whole entry, looked up): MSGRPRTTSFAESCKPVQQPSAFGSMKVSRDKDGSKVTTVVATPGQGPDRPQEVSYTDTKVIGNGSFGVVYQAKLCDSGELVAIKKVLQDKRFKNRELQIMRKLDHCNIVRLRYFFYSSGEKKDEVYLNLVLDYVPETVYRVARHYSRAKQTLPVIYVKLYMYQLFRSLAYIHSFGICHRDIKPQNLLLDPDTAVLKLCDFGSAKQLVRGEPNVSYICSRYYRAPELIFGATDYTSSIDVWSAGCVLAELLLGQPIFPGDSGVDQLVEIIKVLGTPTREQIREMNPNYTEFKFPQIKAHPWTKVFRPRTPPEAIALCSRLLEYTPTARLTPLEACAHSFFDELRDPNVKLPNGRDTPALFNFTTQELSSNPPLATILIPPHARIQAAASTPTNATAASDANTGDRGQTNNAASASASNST
Death-associated protein kinase 2 (Homo sapiens), sequence (Q9UIK4 whole entry, looked up): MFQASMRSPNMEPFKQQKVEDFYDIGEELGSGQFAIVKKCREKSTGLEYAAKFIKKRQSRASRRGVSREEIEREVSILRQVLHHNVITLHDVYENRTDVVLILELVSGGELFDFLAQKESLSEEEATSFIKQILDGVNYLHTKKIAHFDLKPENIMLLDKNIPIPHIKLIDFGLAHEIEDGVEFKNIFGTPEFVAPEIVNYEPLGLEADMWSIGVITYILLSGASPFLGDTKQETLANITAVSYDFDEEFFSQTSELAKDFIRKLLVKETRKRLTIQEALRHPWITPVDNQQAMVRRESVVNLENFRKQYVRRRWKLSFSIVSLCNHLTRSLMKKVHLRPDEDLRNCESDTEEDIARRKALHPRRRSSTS

- fold change (FC) [1]: 0.01
- inhibition [2]: 0%
- inhibition [4]: 12%
- fold change (FC) [5]: 0.05
- inhibition [6]: 0%
- fold change (FC) [7]: 0
Structure (SMILES): CNC(=O)c1ccccc1Oc1nc(Nc2cc(OC)c(OC)c(OC)c2)ncc1Br
- fold change (FC) [3]: 0

- fold change (FC) [8]: 0.01
- fold change (FC) [9]: 0
- inhibition [10]: 0%
- inhibition [11]: 0%
- fold change (FC) [12]: 0
- fold change (FC) [13]: 0
Structure (SMILES): O=C(N[C@@H](C1CC1)C(F)(F)F)c1cc(-c2cnn3cc(-c4ccc(F)cc4)cnc23)cs1

- inhibition [14]: 43%
Structure (SMILES): CC(C)[C@H](NC(=O)c1cc(-c2cnn3cc(-c4ccc(OCCN5CCCCC5)cc4)cnc23)cs1)C(F)(F)F

— ChEMBL document CHEMBL5653631, “A Potent and Selective ULK1 Inhibitor Suppresses Autophagy and Sensitizes Cancer Cells to Nutrient Stress” (iScience, 2018)
